Laboratory results published in US20240383915A1, “OXAZEPINE COMPOUNDS AND USES THEREOF IN THE TREATMENT OF CANCER” (Genentech, Inc., priority 2021, published 2024).

Experiments:
[1] = molecular target: KRAS G12D (Homo sapiens (Human), UniProt P01116, G12D); assay: KRas (G12D) GDP HTRF (BODIPY-GDP exchange TR-FRET); type: biochemical
Description: (§1) KRAS Biochemical Assay—BODIPY-GDP Exchange TR-FRET. Biochemical compound potencies were assessed by evaluating inhibition of SOS1-mediated nucleotide exchange in KRAS G12D. The SOS1-promoted exchange of fluorescently-labeled GDP (BODIPY-GDP) was monitored by time-resolved fluorescence resonance energy transfer (TR-FRET). Compounds solubilized in DMSO were dispensed as concentration series into 384-well white assay plates. A preformed complex of biotin-tagged recombinant human KRAS (1.5 nM mutant G12D or wild type) and 0.15 nM terbium-labeled streptavidin (CisBIO) prepared in 10 μL/well assay buffer (20 mM HEPES, pH 7.5, 50 mM NaCl, 10 mM MgCl2, 0.01% Tween-20 and 1 mM dithiothreitol) was added and allowed to incubate for 10-minutes. The reaction was initiated with the addition of 5 μL of 3 nM recombinant human SOS1 and 300 nM BODIPY-GDP in assay buffer. After a 60-minute incubation, the fluorescence was measured with excitation at 337 nm and emission at 490 and 520 nm. The TR-FRET ratio was determined as the fluorescence at 520 nm divided by the fluorescence at 490 nm multiplied by 10,000. […] The normalized TR-FRET results were plotted against compound concentration, and the data fit to a 4-parameter Hill equation to determine the IC50 values.

[2] = molecular target: KRAS wild type (Homo sapiens (Human), UniProt P01116); assay: KRas (wt) GDP HTRF (BODIPY-GDP exchange TR-FRET); type: biochemical
Description: as §1

[3] = molecular target: Raf-RBD/KRAS G12D interaction (Homo sapiens (Human), UniProt P01116, G12D); assay: KRAS G12D NanoBRET assay; type: cell-based; settings: HCT116
Description: KRAS G12D NanoBRET Assay. Cellular target engagement was assessed by monitoring inhibition of the Raf-RBD/KRAS G12D interaction in a NanoBRET™ assay (Promega). […] Cells were seeded into 384-well white tissue culture-treated assay plates in 40 μL culture medium (RPMI-1640 with 10% fetal bovine serum, 2 mM glutamine, […] puromycin, and 4 ng/mL blasticidin) with doxycycline to induce KRAS G12D-nanoluciferase expression over 20-24 h at 37° C., 5% CO2. The culture medium was then removed and replaced with assay medium (Opti-MEM® with 4% fetal bovine serum) and 0.1 μM HaloTag618 ligand. During the subsequent 4 h incubation at 37° C., 5% CO2, the HaloTag618 ligand binds to the Halotag-labeled KRAS G12D. Compounds solubilized in DMSO were then added as dilution series to the wells in a total volume of 160 nL (0.4% DMSO final), and the plates were incubated overnight at 37° C., 5% CO2. In the final step, 10 μL NanoGlo substrate in Opti-MEM was added to each well, and the emission read at 460 nm (luciferase signal) and 610 nm (NanoBRET signal) on an EnVision plate reader (PerkinElmer). The Raf-RBD/KRAS G12D interaction results in bioluminescence resonance energy transfer (BRET) from the product of the luciferase reaction in the vicinity of the Raf-RBD to the HaloTag ligand acceptor on the KRAS G12D and generates the NanoBRET signal. Binding of compounds to KRAS G12D and disruption of its interaction with Raf-RBD results in reduction of this signal. The luciferase signal and NanoBRET signal for compound wells were divided by the average corresponding signal for DMSO control wells. Then the NanoBRET ratio was calculated by dividing the control-adjusted NanoBRET signal by the similarly adjusted luciferase signal. […] The normalized NanoBRET ratio results were plotted against compound concentration, and the data fit to a 4-parameter Hill equation to determine the IC50 values.

[4] = test system: KRAS wild type human lung adenocarcinoma cell line (PC-9); assay: KRAS 3D-cell proliferation assay, CTG panel non G12D; type: cell-based; settings: 168 h, CellTiter-Glo 3D, 7 days
Description: (§2) KRAS 3D-Cell Proliferation Assays. Cellular potencies of compounds were assessed by evaluating inhibition of proliferation in 3D cultures of homozygous mutant KRAS G12D human pancreatic cell lines (AsPC-1 and SW1990) as compared to a KRAS wild type human lung adenocarcinoma cell line (PC-9). Cells were seeded into 384-well black round-bottom, ultra-low attachment assay plates in 50 μL cell growth medium (RPMI-1640 with 10% fetal bovine serum and 2 mM L-glutamine). After overnight incubation at 37° C. and 5% CO2, compounds solubilized in DMSO were added as dilution series to the wells in a total volume of 150 nL (0.3% DMSO final). The cells were incubated for 7 days at 37° C. and 5% CO2. Cell proliferation was quantitated by addition of 40 μL/well of CellTiter-Glo® 3D (Promega). This reagent in combination with mechanical disruption releases the cellular ATP to promote activity in a luciferase-based enzyme/substrate chemiluminescent detection system. After a 25-minute incubation under ambient conditions with shaking and an additional 10 minutes without shaking, the contents of the wells were mixed by pipetting up and down repeatedly to disrupt the spheroids, and then the plates were centrifuged to remove bubbles. The plates were incubated for another 15 minutes under ambient conditions, and the luminescence read on a plate reader (e.g. EnVision [PerkinElmer]). […] The normalized luminescence results were plotted against compound concentration, and the data fit to a 4-parameter Hill equation to determine the IC50 values.

[5] = test system: KRAS G12D human pancreatic cell lines (AsPC-1 and SW1990); assay: KRAS 3D-cell proliferation assay, CTG panel (G12D); type: cell-based; settings: 168 h, CellTiter-Glo 3D, 7 days
Description: as §2

Sequence of KRAS wild type (P01116-2 other isoform, or with tags, fused parts or gaps): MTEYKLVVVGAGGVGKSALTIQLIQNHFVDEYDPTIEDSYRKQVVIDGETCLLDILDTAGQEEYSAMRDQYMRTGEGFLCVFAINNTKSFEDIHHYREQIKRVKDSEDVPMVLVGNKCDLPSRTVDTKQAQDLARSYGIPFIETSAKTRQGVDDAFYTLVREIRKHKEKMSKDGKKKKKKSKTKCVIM
Sequence of Raf-RBD/KRAS G12D interaction (P01116-2 other isoform, or with tags, fused parts or gaps G12D): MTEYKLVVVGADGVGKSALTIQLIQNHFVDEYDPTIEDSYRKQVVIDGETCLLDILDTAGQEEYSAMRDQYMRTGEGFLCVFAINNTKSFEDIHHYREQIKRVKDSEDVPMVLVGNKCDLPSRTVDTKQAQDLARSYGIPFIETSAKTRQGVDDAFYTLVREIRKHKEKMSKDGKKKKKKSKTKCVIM
Sequence of KRAS G12D (P01116-2 other isoform, or with tags, fused parts or gaps G12D): as above

| SMILES | IC50 [1] [µM] | IC50 [2] [µM] | IC50 [3] [µM] | IC50 [4] [µM] | IC50 [5] [µM] |
| --- | --- | --- | --- | --- | --- |
| C=C1CN2CCC[C@@]2(COc2nc3c4c(c(F)c(-c5nc(N)cc(C)c5C(F)(F)F)c(F)c4n2)OCCN3CCN(C)C)C1 (single isomer, unassigned) [Example 523] | 0.0119 | 0.088 | ≥ 10 | 7.7 |  |
| C=C1CN2CCC[C@@]2(COc2nc3c4c(c(F)c(-c5nc(N)cc(C)c5C(F)(F)F)c(F)c4n2)OCCN3CCN(C)C)C1 (single isomer, unassigned) [Example 524] | 0.48 | 2.68 | ≥ 10 |  |  |
| Cc1cc(N)nc(-c2cc3nc(OC[C@@H]4C[C@@H](F)CN4C)nc4c3c(c2Cl)OCCN4CCN(C)C)c1C(F)(F)F [Example 509, 6-(8-Chloro-4-(2-(dimethylamino)ethyl)-2-(((2S,4R)-4-fluoro-1-methylpyrrolidin-2-yl)methoxy)-5,6-dihydro-4H-[1,4]oxazepino[5,6,7-de]quinazolin-9-yl)-4-methyl-5-(trifluoromethyl)pyridin-2-amine] | 0.164 | 1.66 | 9.85 |  |  |
| Cc1cc(N)nc(-c2cc3ncnc4c3c(c2Cl)OCCN4CCN2CCOCC2)c1C(F)(F)F [Example 504] | 3.46 | 15.1 | ≥ 10 | 18.5 | 14.9 |
| Cc1cc(N)nc(-c2cc3ncnc4c3c(c2Cl)OCCN4C2CCNC2)c1C(F)(F)F (stereo not drawn) [Example 506] | 2.4 | 55 | ≥ 10 |  |  |
| Cc1cc(N)nc(-c2cc3ncnc4c3c(c2Cl)OC[C@H](CC#N)N4C2CCNC2)c1C(F)(F)F (single isomer, unassigned) [Example 508] | 0.472 | 8.11 | ≥ 10 |  |  |
| Cc1cc(N)nc(-c2cc3ncnc4c3c(c2Cl)OCCN4CCN(C)CCO)c1C(F)(F)F [Example 502, 2-((2-(9-(6-Amino-4-methyl-3-(trifluoromethyl)pyridin-2-yl)-8-chloro-5,6-dihydro-4H-[1,4]oxazepino[5,6,7-de]quinazolin-4-yl)ethyl)(methyl)amino)ethan-1-ol] | 2.77 | 71.4 | ≥ 10 | 7.88 | 9.65 |
| CNCCN1CCOc2c(Cl)c(-c3nc(N)cc(C)c3C(F)(F)F)cc3ncnc1c23 [Example 503] | 4.62 | 94.3 | ≥ 10 |  |  |
| Cc1cc(N)nc(-c2cc3ncnc4c3c(c2Cl)OCCN4C2CCNC2)c1C(F)(F)F (stereo not drawn) [Example 505] | 1.73 | 66.4 | ≥ 10 |  |  |
| C=C1CN2CCC[C@@]2(COc2nc3c4c(c(Cl)c(-c5nc(N)cc(C)c5C(F)(F)F)c(F)c4n2)OCCN3CCN(C)C)C1 (single isomer, unassigned) [Example 513] | 0.00155 | 0.0108 | 2.58 | 2.29 | 1.08 |
| Cc1cc(N)nc(-c2cc3nc(OCC45CCCN4CCC5)nc4c3c(c2Cl)OCCN4CCN(C)C)c1C(F)(F)F [Example 510] | 0.0136 | 0.24 | ≥ 10 |  |  |
| C=C1CN2CCC[C@@]2(COc2nc3c4c(c(Cl)c(-c5nc(N)cc(C)c5C(F)(F)F)c(F)c4n2)OCCN3CCN(C)C)C1 (single isomer, unassigned) [Example 514] | 0.817 | 4.12 | ≥ 10 |  |  |
| Cc1cc(N)nc(-c2cc3ncnc4c3c(c2Cl)OCCN4CCN(C)C)c1C(F)(F)F [Example 501, 6-(8-Chloro-4-(2-(dimethylamino)ethyl)-5,6-dihydro-4H-[1,4]oxazepino[5,6,7-de]quinazolin-9-yl)-4-methyl-5-(trifluoromethyl)pyridin-2-amine] | 4.16 | 109 | ≥ 10 |  |  |
| C=C1CN2CCC[C@@]2(COc2nc3c4c(c(Cl)c(-c5nc(N)cc(C)c5C(F)(F)F)cc4n2)OCCN3CCN(C)C)C1 [Example 511] | 0.00607 | 0.0484 | 8.05 | 2.96 | 2.24 |
| Cc1cc(N)nc(-c2cc3ncnc4c3c(c2Cl)OC[C@H](CC#N)N4C2CCNC2)c1C(F)(F)F (single isomer, unassigned) [Example 507] | 0.276 | 8.65 | ≥ 10 |  |  |
